Read-outs that look alike come from different tables or passages of the source.
Columns and labels:
[1] = Trial Example 4: pharmacokinetic study, dose-escalation cohort
[2] = for exposure to toxin molecules: 50 mg/kg, after the last administration
[3] = conjugate A 25 mg/kg, female, Day 1
[4] = conjugate A 25 mg/kg, female, Day 43
[5] = conjugate A 25 mg/kg, male, Day 1
[6] = conjugate A 25 mg/kg, male, Day 43
[7] = conjugate A 50 mg/kg, female, Day 1
[8] = conjugate A 50 mg/kg, female, Day 43
[9] = conjugate A 50 mg/kg, male, Day 1
[10] = conjugate A 50 mg/kg, male, Day 43
[11] = conjugate A 75 mg/kg, female, Day 1
[12] = conjugate A 75 mg/kg, female, Day 43
[13] = conjugate A 75 mg/kg, male, Day 1
[14] = conjugate A 75 mg/kg, male, Day 43

For `CC[C@@]1(O)C(=O)OCc2c1cc1n(c2=O)Cc2c-1nc1ccccc1c2CCN(C(C)C)S(C)(=O)=O` [toxins], the “plasma exposure of the free payload, AUC, relative to conjugate A” value ([1]; first 4-week period) was roughly 5%, the “plasma exposure of the free payload, Cmax, relative to conjugate A” value ([1]; first 4-week period) was “about 6%” and the half-life ([1]; patients, biweekly dosing regimen) was roughly 49 h. The “exposure to toxin molecules” value ([2]; female monkeys) was 5860 ng·h/mL, the “exposure to toxin molecules” value ([2]; male monkeys) was 3850 ng·h/mL and the AUClast of toxins [2, 3] was 1430 ng·h/mL. It also gave a Cmax of toxins [2, 3] of 38.3 ng/mL, an AUClast of toxins [2, 4] of 1860 ng·h/mL and a Cmax of toxins [2, 4] of 65.1 ng/mL. For the same molecule, the AUClast of toxins [2, 5] was 1790 ng·h/mL, the Cmax of toxins [2, 5] was 49.0 ng/mL and the AUClast of toxins [2, 6] was 2570 ng·h/mL. The Cmax of toxins [2, 6] was 64.5 ng/mL, the AUClast of toxins [2, 7] was 3970 ng·h/mL and the Cmax of toxins [2, 7] was 113 ng/mL. The AUClast of toxins [2, 8] was 3850 ng·h/mL, the Cmax of toxins [2, 8] was 127 ng/mL and the AUClast of toxins [2, 9] was 4490 ng·h/mL. The Cmax of toxins [2, 9] was 94.0 ng/mL, the AUClast of toxins [2, 10] was 5860 ng·h/mL and the Cmax of toxins [2, 10] was 146 ng/mL. It also gave an AUClast of toxins [2, 11] of 5120 ng·h/mL, a Cmax of toxins [2, 11] of 132 ng/mL and an AUClast of toxins [2, 12] of 4680 ng·h/mL. The Cmax of toxins [2, 12] was 137 ng/mL, the AUClast of toxins [2, 13] was 5420 ng·h/mL and the Cmax of toxins [2, 13] was 132 ng/mL. For the same molecule, the AUClast of toxins [2, 14] was 4080 ng·h/mL and the Cmax of toxins [2, 14] was 110 ng/mL.
